Source: patent US20070026073A1, “Amorphous efavirenz and the production thereof” (priority 2005, published 2007)

Experiment: dissolution test, USP apparatus II (paddles), efavirenz released in water
Type: physicochemical
Conditions: 50 mg efavirenz equivalent in capsule with 15% croscarmellose sodium, 37° C., 100 rpm
Method: FIG. 9 is a plot of percent efavirenz released in water as a function of time for spray dried product using solvent and solvent/non-solvent methods in accordance with Example #8.
Initial release refers to the percent of drug released after 15 minutes in accordance with a standard dissolution test method. Extent of release refers to the percent of drug released after 240 minutes in accordance with the same standard dissolution test method.
Preferably these limits are obtained within about 120 minutes, more particularly within about 60 minutes and still more particularly within about 30 minutes. Dissolution profiles can be determined using USP apparatus II (paddles) (VK 7010®, Varian Inc.), with a bath temperature of 37° C. and a paddle speed of 100 rpm for 240 minutes.
3. The dissolution properties of both amorphous compositions were tested and compared to the crystalline drug form. An amount equivalent to 50 mg efavirenz was analyzed. Powders were hand-filled into size 1 hard gelatin capsules (Shinogi Qualicaps) with an additional 15% croscarmellose sodium (Ac-Di-Sol®, FMC BioPolymers). USP apparatus II (paddles) (VK 7010®, Varian Inc.) was used, with a bath temperature of 37° C. and a paddle speed of 100 rpm for 240 minutes. Both amorphous efavirenz compositions achieved faster rate of release and higher maximum aqueous concentration than the crystalline form (FIG. 9, Table 1). […]

EFV released 15 min (15 min): 7% | EFV released 240 min (240 min): 13%
SMILES: O=C1Nc2ccc(Cl)cc2[C@@](C#CC2CC2)(C(F)(F)F)O1 [crystalline efavirenz, (S)-6-chloro-4-(cyclopropylethynyl)-1,4-dihydro-4-(trifluoromethyl)-2H-3,1-benzoxazin-2-one]
